Source: a melting point compilation (Tetko et al.; mined from patent text by program, amines drawn as free bases though some values may be those of a salt)

SMILES | melting point [°C]
COC(=O)C1=C(N)C(=O)NCC1 | 192 to 194
COc1ccc(-c2sc3cc(OC)ccc3c2C#N)cc1 | 142 to 143
CC(C)c1cc(S(C)(=O)=O)c(C(C)C)cc1C#N | 134 to 137
CC(C)c1cccc2c1O[C@@H](C(C)C)C(=S)N2CC(=O)O | 109 to 110
CCCCCCc1ccc(C=CC(=O)c2ccc(OCC=C(C)C)cc2OCC(=O)OCC)cc1 | 56 to 57
Cc1cc(C2CC(C)(C)CC(C)(C)C2(O)C#C[Si](C)(C)C)ccc1F (stereo not drawn) | 76 to 78
COc1cc2c(cc1OC)C(c1sc(O)nc1C)=NCC2 | 114 to 120
O=C(Nc1cccc(C(F)(F)F)c1)c1cccc2cc(Oc3cc(CCl)ncn3)ccc12 | 178 to 181
CCN(CC)C(=O)CO/N=C(\C(=O)O)c1csc(N)n1 | 180
COc1ccc(-c2ccc3c(C(N)=O)nn(-c4ccc(S(N)(=O)=O)cc4)c3c2)cc1 | 258 to 259
CCc1ccc2ncc([N+](=O)[O-])c(Nc3ccccc3Cl)c2c1 | 134 to 136
CC(=O)c1cc(C=O)c(O)cc1O | 134 to 136
O=C(O)CCNc1ccc(C(=O)c2ccccc2)cc1[N+](=O)[O-] | 170 to 175
CCNc1c(C(=O)OCC)c(=O)n(CC)c2nc(C)ccc12 | 133 to 136
CC(C)(C)OC(=O)CN1CCN(c2ccncc2)C1=O | 147 to 148
COc1ccc(-c2nc3cnncc3[nH]2)c(N(C)C)c1 | 226
COc1ccc(CCCOc2c(C)cc(-c3noc(C)n3)cc2C)cn1 | 71 to 73
C[C@](O)(CBr)C(=O)Nc1ccc(C#N)c(C(F)(F)F)c1 | 124 to 126
CC(=O)NS(=O)(=O)c1cccc(N)c1 | 148 to 150
CCCc1nc2ccccc2n1Cc1ccc(C2CCCC2C(=O)O)cc1 (stereo not drawn) | 179 to 180
CCCc1c(C(=O)C(C)C)c2ccc(CC(N)=O)cc2n1Cc1cc2c(cc1Cl)OCO2 | 136 to 138
O=[N+]([O-])c1oc2cc3c(cc2c1-c1ccccc1)OCO3 | 180 to 183
CCSc1nc(N2CCNCC2)nc2cccnc12 | 98 to 101
COc1cc(-c2nc(C)no2)cc2oc(=O)c(C)c(C)c12 | 172 to 174
CCOC(=O)CC(NC(=O)c1ccccc1)C(=O)c1ccco1 (stereo not drawn) | 75 to 76

SMILES | melting point [°C]
CCOC(=O)Cc1ccc2c(c1)C(=O)C(NC(=O)OC)CC2 (stereo not drawn) | 95 to 97
Nc1cccc(-c2ccc(OCC3CCN3)c3ccccc23)n1 (stereo not drawn) | 135 to 150
O=C(NNC(=O)c1occ(-c2ccccc2)c1-c1ccccc1)c1ccc(O)c([N+](=O)[O-])c1 | 214 to 217
O=C1N(CC2CCCO2)c2ccccc2C12COc1cc3c(cc12)CCCC3 (stereo not drawn) | 139 to 141
CCOC(=O)c1cn(-c2cnc(Cl)c(N)c2)c2c(Cl)c(F)c(F)cc2c1=O | 233 to 236
Oc1cccc(-c2nc3ccccc3s2)c1 | 110
COC(=O)CS(=O)(=O)Cc1cnc(OC)c([N+](=O)[O-])c1 | 137 to 140
CC(CC1CCCCC1)N(C)C(=O)COCC(=O)O (stereo not drawn) | 90 to 91
O=C(NCc1ccc(Cl)cc1)c1cnc2cc(I)ccc2c1O | 248 to 250
CC1=NN(C)C(=O)C1(Cl)C(=O)c1cc(C)ccc1[N+](=O)[O-] (stereo not drawn) | 110 to 111
COC(=O)c1cccc2cc(C)sc12 | 48 to 49
N[C@@H](Cc1ccccc1)C(=O)N(CC1CC(Cl)=NO1)C(=O)OCc1ccccc1 (stereo partly drawn) | 141 to 148
CC1(C)C(=O)N(c2ccc([N+](=O)[O-])c(C(F)(F)F)c2)C(=O)N1CCOCCN1C(=O)N(c2ccc([N+](=O)[O-])c(C(F)(F)F)c2)C(=O)C1(C)C | 186 to 188
CCCCCCCNC(=O)Nc1cccc(N(C)C)c1C(=O)NC1CCN(C(c2ccccc2)c2ccccc2)CC1 | 77
CSc1nc2cc(C(F)(F)F)ccc2n1N | 170 to 173
CC(C)(C)NC(=O)[C@H](Cc1ccc(OCc2c(Cl)cccc2Cl)cc1)NC(=O)OC(C)(C)C | 82 to 86
CCn1nc2c(N)nc3ccccc3c2c1C | 217 to 218
O=C1C2CCCC2=Nc2ccccc2N1Cc1ccc([N+](=O)[O-])cc1 (stereo not drawn) | 185 to 188
CC(O)C1C(=O)N2C(C(=O)OCc3ccccc3)=C(S(=O)c3ccccc3)CC12 (stereo not drawn) | 104 to 109
CCCCCCCCc1c(CC)nc2nc(Cl)nn2c1N | 202 to 203
CC(C)(C)c1cccc(S(=O)(=O)n2c(C(O)c3ccc(C(=O)O)cc3)cc3cc(C(F)(F)F)ccc32)c1 (racemic) | 110
O=C1C(c2cc3c(cc2O)OCCC3)c2ccccc2N1C(c1ccccc1)c1ccccc1 (stereo not drawn) | 207 to 210
COc1ccc(CS(=O)CC(=O)NO)cc1 (stereo not drawn) | 160
N#Cc1cc(-c2c3ccccc3cc3sc4ccccc4c23)cc(C#N)c1O | 274 to 276
c1cc(Sc2cccc3cnccc23)c2ccncc2c1 | 138 to 140

SMILES | melting point [°C]
CCOC(=O)/C=C(C)/C=C/C=C(\C)C1=Cc2cc(Cl)cc(C)c2OC1 | 107
Cc1nc2ccccc2c(=O)n1CCO | 159 to 160
CC(C)(C)OC(=O)C(Nc1ccccc1)c1cccc(F)c1 (racemic) | 90
O=C(Nc1cccc(C(=O)O)c1)OCc1ccccc1 | 218 to 219
COCCOc1ccc(CCCOC(=O)NS(=O)(=O)NCCC(C)C)c(Oc2ncc(C(F)(F)F)cc2Cl)c1 | 123 to 124
C[Si](C)(C)c1ccc2cc(C(=O)Nc3ccc(N4CCC4)nc3)n(Cc3cccc(F)c3)c2c1 | 208 to 210
COC(=O)c1cnc2c(C)cc(C)cc2c1-c1ccccc1Cl | 117 to 118
Cc1oc(-c2ccco2)nc1COc1ccc(COc2ncccc2CC#N)cc1 | 141 to 142
COCOc1cccc2c(=O)[nH]c(CCCN(C)C)cc12 | 110 to 112
CC(C)CCCC(C)C1CCC2C3=CCC4C(C)(C)C(OC(=O)c5ccccc5)CCC4(C)C3CCC21C (stereo not drawn) | 160 to 161
Cc1c(C(=O)O)ccc2c1CCCO2 | 207 to 208
CCn1c(-c2ccc(OC)c(OC)c2)cc(=Nc2c(C)cc(C)cc2C)n(C)c1=O | 57 to 61
O=C(Nc1ccc(C(=O)N2Cc3ccccc3Cc3ccccc32)cc1)c1ccccc1Cl | 110 to 115
N#Cc1cc(-c2nc3cncnc3s2)ccc1Oc1ccc(Cl)cc1 | 179 to 180
CC(C)n1nc(-c2c(-c3ccccc3)nn3ccc(N4CCN(c5ccccc5)CC4)cc23)ccc1=O | > 240
CS(=O)(=O)c1ccc(-c2cc(O)sc2-c2ccc(F)cc2)cc1 | 60
Cc1cc2c(cc1C)C(=O)C(Nc1ccccc1)=CC2=O | 208 to 210
Cn1cc(C(=O)NCc2ccc(Cl)cc2)c(=O)c2cc(CCCO)sc21 | 197 to 198
CCCCCCCCCCCCCC(O)CNCCCCCCNCC(O)CCCCCCCCCCCCC (stereo not drawn) | 117 to 124
CC(C)(C)OC(=O)N1CCN(c2ccc(OC[C@@]3(C)Cn4cc([N+](=O)[O-])nc4O3)cc2Cl)CC1 | 207 to 210
O=C1O[C@@H](CO)CN1c1ccc(I)c(F)c1 | 116 to 117
Cc1cc(C(C)(C)C)c(O)c(C)c1CSP(=S)(C1CCCCC1)C1CCCCC1 | 113 to 116
O=C(Cn1c(-c2ccc(Br)cc2)nc2cccnc21)Nc1ccccn1 | 192 to 195
COCCc1nc2c(N)nc3ccccc3c2n1CCOCCNS(C)(=O)=O | 114 to 117
COc1cc2cc(C(=O)N3CC(CCl)c4c3cc([N+](=O)[O-])c3cc(S(=O)(=O)NCCO)ccc43)[nH]c2c(OC)c1OC (stereo not drawn) | 257 to 258

SMILES | melting point [°C]
CCOC(=O)Cn1c(-c2ccccc2Cl)nc2cccnc21 | 64 to 66
CSC(=NC(C)=O)Nc1ccccc1[N+](=O)[O-] | 120 to 122
NC(=O)C1CCc2[nH]c3cc(Cl)c(F)cc3c2C1 (stereo not drawn) | 245 to 246
Oc1cccc(Sc2ncccc2O)c1 | 147 to 148
CN(C(=O)Nc1ccccc1)C1CCCCC1 | 195 to 197
Cc1cc(/C=C/CC(C)N(C)C(=O)OC(C)(C)C)cnc1N (stereo not drawn) | 78 to 81
CC(C)(C)c1ccc(CNC(=O)NCc2ccc(NS(C)(=O)=O)c(Cl)c2)cc1 | 60 to 61
CC(=O)OC1CSC(Oc2cccc(-c3ccccn3)c2)C(OC(C)=O)C1OC(C)=O (stereo not drawn) | 68 to 97
O=c1c2ccccc2sc2ccc(N3CCOCC3)cc12 | 166 to 167
Cc1ccc2c(c1)c(-c1ccc(F)cc1)cn2N1CCN(C)CC1 | 105 to 107
CCCCc1nc(CO)c(S(=O)(=O)CC)n1Cc1ccc(-c2ccccc2C(=O)O)cc1 | 210
Cc1oc(-c2ccc(C(F)(F)F)cc2)nc1-c1ccc(-c2cc(Br)c(OC(Cc3ccccc3)C(=O)O)c(Br)c2)cc1 (stereo not drawn) | 241 to 243
O=C(NCCn1ccnc1)c1cc(N2CC2)c([N+](=O)[O-])cc1[N+](=O)[O-] | > 250
Cc1cnn(CC(=O)O)c1OCCCc1cn(-c2ccc(C(F)(F)F)cn2)nc1C(C)C | 123 to 124
CCCC(=O)c1cc2nc(C(=O)OCC)n(C)c2cc1C | 106 to 108
CCOc1ccc2c(c1)n(-c1ccccn1)c(=O)n2S(=O)(=O)c1ccc(C(=O)O)cc1OC | 241
Cc1noc(NS(=O)(=O)c2ccccc2-c2c[nH]c3ccccc23)c1C | 184 to 186
CCCCn1c(=O)c2c(N3CCN(C)CC3)cc(Cl)cc2n(Cc2ccccc2)c1=O | 121 to 123
O=C1C(=O)c2ccccc2C2=C1SCC1(CCN(C(=O)c3cccc(Cl)c3)CC1)O2 | 155 to 158
O=C(O)c1cc(OCC(=O)c2ccccc2)cc(C(F)(F)F)c1 | 180 to 182
O=C(CCl)Nc1ccc2c(c1NC(=O)CSc1ccccc1)C(=O)c1ccccc1C2=O | 161 to 162
O=C(Nc1n[nH]c2nc(Oc3ccc(F)cc3F)ncc12)OCc1ccccc1 | 270 to 272
CCCn1cc(Cc2ccc(C(=O)OC)cc2OC)c2cc(C=CCC(=O)N(C)C)ccc21 | 122 to 124
